Molecular target: Dual specificity calcium/calmodulin-dependent 3',5'-cyclic nucleotide phosphodiesterase 1B (Homo sapiens, UniProt Q01064)
Test: Ca2+-Calmodulin Dependent PDE Enzyme Assays
Method: PDE1B, PDE1A, and PDE1C are cloned and purified following standard protein generation procedures. The assay buffer is prepared to give a final concentration in the assay of 50 mM Tris-HCl, 50 mM MgCl2, 4 mM CaCl2, 0.1% Bovine serum albumin and 6 U/ml Calmodulin in water, at pH 7.5.

Sequence of Dual specificity calcium/calmodulin-dependent 3',5'-cyclic nucleotide phosphodiesterase 1B (Q01064 whole entry): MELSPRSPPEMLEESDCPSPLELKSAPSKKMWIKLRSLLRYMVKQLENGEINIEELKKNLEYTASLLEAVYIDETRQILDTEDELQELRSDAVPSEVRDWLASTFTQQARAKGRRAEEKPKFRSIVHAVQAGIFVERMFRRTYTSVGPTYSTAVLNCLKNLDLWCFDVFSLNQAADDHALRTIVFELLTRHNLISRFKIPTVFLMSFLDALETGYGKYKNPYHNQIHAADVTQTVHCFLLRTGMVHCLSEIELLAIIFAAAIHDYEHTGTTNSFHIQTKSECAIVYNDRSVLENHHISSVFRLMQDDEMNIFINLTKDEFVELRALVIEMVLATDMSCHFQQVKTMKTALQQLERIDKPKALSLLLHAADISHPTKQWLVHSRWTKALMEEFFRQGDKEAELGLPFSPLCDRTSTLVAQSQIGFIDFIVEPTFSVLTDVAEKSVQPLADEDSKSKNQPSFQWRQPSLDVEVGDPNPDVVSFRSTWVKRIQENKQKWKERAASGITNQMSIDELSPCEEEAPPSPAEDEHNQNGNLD

IC50 | SMILES
0.419 nM | CCCCn1c(=O)c2nnc(C3(C4CC4)CC3)n2c2ncc(CC)cc21 [US11180503, Example 9]
0.928 nM | CCCCn1c(=O)c2nnc(C3(C4CC4)CC3)n2c2ncc(CO)cc21 [US11180503, Example 11]

From BindingDB's records for patent US11180503 (ELI LILLY AND COMPANY, 2021)
